Columns and labels:
crabgrass = experiment: Greenhouse pot test, postemergent spray, visual control rating converted to percent control; assay type: in vivo
Summary of the method: (§1)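 Potted plants in soilless greenhouse medium were sprayed at 43.46 gallons of spray solution/acre and kept in the greenhouse. Effects were rated visually on a 1–9 scale (1 = no control, 9 = plant death) at 24, 48 and 72 HAT and 7, 14 and 21 DAT, then converted to percent control.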

plantain = experiment: as above; assay type: in vivo
Summary of the method: as §1

SMILES: O=C(O)c1c(Cl)ccc2cc(Cl)cnc12 [Quinclorac, 3,7-dichloro-8-quinolinecarboxylic acid]
- % Control Crabgrass (crabgrass; Test 1, 14 DAT, 0.18 lbs/A): 77.8%
- Control (1-9) Crabgrass (crabgrass; Test 1, 14 DAT, 0.18 lbs/A): 7
- % Control Crabgrass (crabgrass; Test 1, 14 DAT, 0.375 lbs/A): 55.6%
- Control (1-9) Crabgrass (crabgrass; Test 1, 14 DAT, 0.375 lbs/A): 5
- % Control Crabgrass (crabgrass; Test 1, 14 DAT, 0.75 lbs/A): 55.6%
- Control (1-9) Crabgrass (crabgrass; Test 1, 14 DAT, 0.75 lbs/A): 5
- % Control Crabgrass (crabgrass; Test 1, 24 HAT, 0.18 lbs/A): 22.2%
- Control (1-9) Crabgrass (crabgrass; Test 1, 24 HAT, 0.18 lbs/A): 2
- % Control Crabgrass (crabgrass; Test 1, 24 HAT, 0.375 lbs/A): 22.2%
- Control (1-9) Crabgrass (crabgrass; Test 1, 24 HAT, 0.375 lbs/A): 2
- % Control Crabgrass (crabgrass; Test 1, 24 HAT, 0.75 lbs/A): 22.2%
- Control (1-9) Crabgrass (crabgrass; Test 1, 24 HAT, 0.75 lbs/A): 2
- % Control Crabgrass (crabgrass; Test 1, 48 HAT, 0.18 lbs/A): 33.3%
- Control (1-9) Crabgrass (crabgrass; Test 1, 48 HAT, 0.18 lbs/A): 3
- % Control Crabgrass (crabgrass; Test 1, 48 HAT, 0.375 lbs/A): 44.4%
- Control (1-9) Crabgrass (crabgrass; Test 1, 48 HAT, 0.375 lbs/A): 4
- % Control Crabgrass (crabgrass; Test 1, 48 HAT, 0.75 lbs/A): 44.4%
- Control (1-9) Crabgrass (crabgrass; Test 1, 48 HAT, 0.75 lbs/A): 4
- % Control Crabgrass (crabgrass; Test 2, 7 DAT, 0.18 lbs/A): 33.3%
- Control (1-9) Crabgrass (crabgrass; Test 2, 7 DAT, 0.18 lbs/A): 3
- % Control Crabgrass (crabgrass; Test 2, 7 DAT, 0.375 lbs/A): 77.8%
- Control (1-9) Crabgrass (crabgrass; Test 2, 7 DAT, 0.375 lbs/A): 7
- % Control Crabgrass (crabgrass; Test 2, 7 DAT, 0.75 lbs/A): 77.8%
- Control (1-9) Crabgrass (crabgrass; Test 2, 7 DAT, 0.75 lbs/A): 7
- % Control Crabgrass (crabgrass; Test 2, 14 DAT, 0.18 lbs/A): 55.6%
- Control (1-9) Crabgrass (crabgrass; Test 2, 14 DAT, 0.18 lbs/A): 5
- % Control Crabgrass (crabgrass; Test 2, 14 DAT, 0.375 lbs/A): 77.8%
- Control (1-9) Crabgrass (crabgrass; Test 2, 14 DAT, 0.375 lbs/A): 7
- % Control Crabgrass (crabgrass; Test 2, 14 DAT, 0.75 lbs/A): 88.9%
- Control (1-9) Crabgrass (crabgrass; Test 2, 14 DAT, 0.75 lbs/A): 8
- % Control Crabgrass (crabgrass; Test 2, 24 HAT, 0.18 lbs/A): 33.3%
- Control (1-9) Crabgrass (crabgrass; Test 2, 24 HAT, 0.18 lbs/A): 3
- % Control Crabgrass (crabgrass; Test 2, 24 HAT, 0.375 lbs/A): 22.2%
- Control (1-9) Crabgrass (crabgrass; Test 2, 24 HAT, 0.375 lbs/A): 2
- % Control Crabgrass (crabgrass; Test 2, 24 HAT, 0.75 lbs/A): 22.2%
- Control (1-9) Crabgrass (crabgrass; Test 2, 24 HAT, 0.75 lbs/A): 2
- % Control Crabgrass (crabgrass; Test 2, 72 HAT, 0.18 lbs/A): 44.4%
- Control (1-9) Crabgrass (crabgrass; Test 2, 72 HAT, 0.18 lbs/A): 4
- % Control Crabgrass (crabgrass; Test 2, 72 HAT, 0.375 lbs/A): 33.3%
- Control (1-9) Crabgrass (crabgrass; Test 2, 72 HAT, 0.375 lbs/A): 3
- % Control Crabgrass (crabgrass; Test 2, 72 HAT, 0.75 lbs/A): 44.4%
- Control (1-9) Crabgrass (crabgrass; Test 2, 72 HAT, 0.75 lbs/A): 4
- % Control Crabgrass (crabgrass; Test 4, 7 DAT, 0.18 lbs/A): 11.1%
- Control (1-9) Crabgrass (crabgrass; Test 4, 7 DAT, 0.18 lbs/A): 1
- % Control Crabgrass (crabgrass; Test 4, 7 DAT, 0.375 lbs/A): 22.2%
- Control (1-9) Crabgrass (crabgrass; Test 4, 7 DAT, 0.375 lbs/A): 2
- % Control Crabgrass (crabgrass; Test 4, 7 DAT, 0.75 lbs/A): 22.2%
- Control (1-9) Crabgrass (crabgrass; Test 4, 7 DAT, 0.75 lbs/A): 2
- % Control Crabgrass (crabgrass; Test 4, 14 DAT, 0.18 lbs/A): 22.2%
- Control (1-9) Crabgrass (crabgrass; Test 4, 14 DAT, 0.18 lbs/A): 2
- % Control Crabgrass (crabgrass; Test 4, 14 DAT, 0.375 lbs/A): 33.3%
- Control (1-9) Crabgrass (crabgrass; Test 4, 14 DAT, 0.375 lbs/A): 3
- % Control Crabgrass (crabgrass; Test 4, 14 DAT, 0.75 lbs/A): 44.4%
- Control (1-9) Crabgrass (crabgrass; Test 4, 14 DAT, 0.75 lbs/A): 4
- % Control Plantain (plantain; Test 4, 7 DAT, 0.18 lbs/A): 33.3%
- Control (1-9) Plantain (plantain; Test 4, 7 DAT, 0.18 lbs/A): 3
- % Control Plantain (plantain; Test 4, 7 DAT, 0.375 lbs/A): 22.2%
- Control (1-9) Plantain (plantain; Test 4, 7 DAT, 0.375 lbs/A): 2
- % Control Plantain (plantain; Test 4, 7 DAT, 0.75 lbs/A): 33.3%
- Control (1-9) Plantain (plantain; Test 4, 7 DAT, 0.75 lbs/A): 3
- % Control Plantain (plantain; Test 4, 14 DAT, 0.18 lbs/A): 33.3%
- Control (1-9) Plantain (plantain; Test 4, 14 DAT, 0.18 lbs/A): 3
- % Control Plantain (plantain; Test 4, 14 DAT, 0.375 lbs/A): 22.2%
- Control (1-9) Plantain (plantain; Test 4, 14 DAT, 0.375 lbs/A): 2
- % Control Plantain (plantain; Test 4, 14 DAT, 0.75 lbs/A): 33.3%
- Control (1-9) Plantain (plantain; Test 4, 14 DAT, 0.75 lbs/A): 3

— US20040266623A1, “SYNERGISTIC QUINCLORAC HERBICIDAL COMPOSITIONS” (priority 2003, published 2004)
